Reference: ChEMBL document CHEMBL4152353, “Synthesis of DNA interactive C3-trans-cinnamide linked β-carboline conjugates as potential cytotoxic and DNA topoisomerase I inhibitors” (Bioorg Med Chem, 2018)
Activity calls are given as the source filed them. No cut-off for these calls is given here.

Tests used:
[1] = system: MCF7; experiment: Induction of apoptosis in human MCF7 cells assessed as early apoptotic cells at 0.5 uM after 48 hrs by Annexin-V-FITC/propidium iodide staining based flow cytometry (reference value: 0.09%); assay type: functional
[2] = system: MCF7; experiment: Cytotoxicity against human MCF7 cells after 48 hrs by MTT assay; assay type: functional, cell-based; settings: MCF7, 48 h
[3] = system: NIH3T3; experiment: Cytotoxicity against mouse NIH/3T3 cells assessed as cell death at 1 uM after 24 hrs by propidium iodide/Hoechst 33342 staining based fluorescence microscopic analysis; settings: nih3t3, 24 h
[4] = system: MCF7; experiment: Cell cycle arrest in human MCF7 cells assessed as accumulation at subG1 phase at 0.5 uM after 48 hrs by propidium iodide staining based flow cytometry (reference value: 3.04%); assay type: functional
[5] = system: MCF7; experiment: Induction of apoptosis in human MCF7 cells assessed as viable cells at 0.5 uM after 48 hrs by Annexin-V-FITC/propidium iodide staining based flow cytometry (reference value: 96.18%); assay type: functional; settings: MCF7, 48 h, read-out: Activity
[6] = system: MCF7; experiment: Cell cycle arrest in human MCF7 cells assessed as accumulation at G2/M-phase at 1 uM after 48 hrs by propidium iodide staining based flow cytometry (reference value: 33.65%); assay type: functional
[7] = system: Calf thymus DNA; experiment: Binding affinity to calf thymus DNA assessed as increase in viscosity at 15 uM by viscometric method; assay type: nucleic-acid assay; settings: Bos taurus
[8] = system: Calf thymus DNA; experiment: Binding affinity to calf thymus DNA at 50 uM by UV-Vis absorption spectrophotometric method; assay type: nucleic-acid assay; settings: Bos taurus
[9] = system: MCF7; experiment: Induction of apoptosis in human MCF7 cells assessed as DNA fragmentation at 1 uM after 48 hrs by Hoechst 33342 staining based confocal microscopic analysis; assay type: functional, cell-based
[10] = system: MCF7; experiment: Induction of apoptosis in human MCF7 cells assessed as early apoptotic cells at 1 uM after 48 hrs by Annexin-V-FITC/propidium iodide staining based flow cytometry (reference value: 0.09%); assay type: functional
[11] = system: MCF7; experiment: Cell cycle arrest in human MCF7 cells assessed as accumulation at S-phase at 1 uM after 48 hrs by propidium iodide staining based flow cytometry (reference value: 15.64%); assay type: functional
[12] = system: Calf thymus DNA; experiment: Binding affinity to calf thymus DNA assessed as fluorescence quenching at 10 uM by spectrofluorimetric method; assay type: nucleic-acid assay; settings: Bos taurus
[13] = system: MCF7; experiment: Cytotoxicity against human MCF7 cells assessed as cell death at 1 uM after 24 hrs by propidium iodide/Hoechst 33342 staining based fluorescence microscopic analysis; assay type: functional
[14] = system: HeLa; experiment: Cytotoxicity against human HeLa cells after 48 hrs by MTT assay; assay type: functional, cell-based
[15] = system: MCF7; experiment: Induction of apoptosis in human MCF7 cells assessed as necrotic cells at 0.5 uM after 48 hrs by Annexin-V-FITC/propidium iodide staining based flow cytometry (reference value: 3.67%); assay type: functional
[16] = target: T1, Topoisomerase I (Bos taurus, UniProt Q2HPH0); experiment: Inhibition of calf thymus topoisomerase 1-mediated relaxation of supercoiled pBR322 DNA measured after 30 mins by agarose gel electrophoresis method
T1 sequence (Q2HPH0 whole entry): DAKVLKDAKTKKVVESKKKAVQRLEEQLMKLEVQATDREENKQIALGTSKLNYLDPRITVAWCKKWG

[17] = system: MCF7; experiment: Induction of apoptosis in human MCF7 cells assessed as necrotic cells at 1 uM after 48 hrs by Annexin-V-FITC/propidium iodide staining based flow cytometry (reference value: 3.67%); assay type: functional
[18] = system: Calf thymus DNA; experiment: Binding affinity to calf thymus DNA assessed as DNA winding at 1:1 to 1:2 ratio of DNA to compound by circular dichroism analysis; assay type: nucleic-acid assay; settings: Bos taurus
[19] = system: A549; experiment: Cytotoxicity against human A549 cells after 48 hrs by MTT assay; assay type: functional, cell-based; settings: A549, 48 h
[20] = system: MCF7; experiment: Induction of apoptosis in human MCF7 cells assessed as increase in number of wrinkled cells at 1 uM after 48 hrs by Hoechst 33342 staining based confocal microscopic analysis; assay type: functional, cell-based
[21] = system: MCF7; experiment: Cell cycle arrest in human MCF7 cells assessed as accumulation at G1 phase at 1 uM after 48 hrs by propidium iodide staining based flow cytometry (reference value: 45.98%); assay type: functional
[22] = system: Calf thymus DNA; experiment: Binding affinity to calf thymus DNA assessed as maximum absorption peak at 50 uM by UV-Vis absorption spectrophotometric method; assay type: nucleic-acid assay; settings: Bos taurus
[23] = system: MCF7; experiment: Cell cycle arrest in human MCF7 cells assessed as accumulation at S-phase at 0.5 uM after 48 hrs by propidium iodide staining based flow cytometry (reference value: 15.64%); assay type: functional
[24] = system: MCF7; experiment: Induction of apoptosis in human MCF7 cells assessed as late apoptotic cells at 0.5 uM after 48 hrs by Annexin-V-FITC/propidium iodide staining based flow cytometry (reference value: 0.06%); assay type: functional
[25] = system: NIH3T3; experiment: Cytotoxicity against mouse NIH/3T3 cells after 48 hrs by MTT assay; assay type: cell-based; settings: NIH3T3, 48 h
[26] = system: MCF7; experiment: Cell cycle arrest in human MCF7 cells assessed as accumulation at G2/M-phase at 0.5 uM after 48 hrs by propidium iodide staining based flow cytometry (reference value: 33.65%); assay type: functional
[27] = system: MCF7; experiment: Cell cycle arrest in human MCF7 cells assessed as accumulation at subG1 phase at 1 uM after 48 hrs by propidium iodide staining based flow cytometry (reference value: 3.04%); assay type: functional
[28] = system: Calf thymus DNA; experiment: Binding affinity to calf thymus DNA assessed as hypochromic shift at 50 uM by UV-Vis absorption spectrophotometric method; assay type: nucleic-acid assay; settings: Bos taurus
[29] = system: MCF7; experiment: Induction of apoptosis in human MCF7 cells assessed as viable cells at 1 uM after 48 hrs by Annexin-V-FITC/propidium iodide staining based flow cytometry (reference value: 96.18%); assay type: functional; settings: MCF7, 48 h, read-out: Activity
[30] = system: MCF7; experiment: Induction of apoptosis in human MCF7 cells assessed as late apoptotic cells at 1 uM after 48 hrs by Annexin-V-FITC/propidium iodide staining based flow cytometry (reference value: 0.06%); assay type: functional
[31] = system: B16; experiment: Cytotoxicity against mouse B16 cells after 48 hrs by MTT assay; assay type: functional, cell-based; settings: B16, 48 h
[32] = system: MCF7; experiment: Cell cycle arrest in human MCF7 cells assessed as accumulation at G1 phase at 0.5 uM after 48 hrs by propidium iodide staining based flow cytometry (reference value: 45.98%); assay type: functional

Compound	Activity [1] [%]	IC50 [2] [nM]	Activity [3]	Activity [4] [%]	viability at 0.5 µM [5] [%]	Activity [6] [%]	Activity [7]	K [8]	Activity [9]	Activity [10] [%]	Activity [11] [%]	Activity [12]	Activity [13]	IC50 [14] [nM]	Activity [15] [%]	IC50 [16] [nM]	Activity [17] [%]	Activity [18]	IC50 [19] [nM]	Activity [20]	further results
COc1ccc(-c2nc(CNC(=O)/C=C/c3cccc(O)c3)cc3c2[nH]c2ccccc23)cc1	9.75	13.8	Non-Toxic	4.61	81.3	39.25	Active	1 ×10³ /M	Active	9.46	16.29	Active	Active	22.3	6.45	14	9.55	Active	18.9	Active	Activity [21]: 40.12%; Activity [22]: 287 to 369 nm; Activity [23]: 16.81%; Activity [24]: 2.5%; IC50 [25]: 37.2 nM; Activity [26]: 32.46%; Activity [27]: 4.32%; Activity [28]: inactive; viability at 1 µM [29]: 77.3%; Activity [30]: 3.69%; IC50 [31]: 16.3 nM; Activity [32]: 46.11%
COc1ccc(-c2nc(CNC(=O)/C=C/c3ccc(Cl)cc3)cc3c2[nH]c2ccccc23)cc1	6.65	14.1	Non-Toxic	5.4	91.2	37.42	Active	3 ×10⁵ /M	Active	6.69	16.72	Active	Active	21.6	1.29	14	6.04	Active	18.9	Active	Activity [21]: 42.38%; Activity [22]: 287 to 369 nm; Activity [23]: 17.6%; Activity [24]: 0.81%; IC50 [25]: 38.3 nM; Activity [26]: 33.1%; Activity [27]: 2.97%; Activity [28]: 6 nm; viability at 1 µM [29]: 84.8%; Activity [30]: 2.43%; IC50 [31]: 16.6 nM; Activity [32]: 42.32%
